* marks the point of attachment. Decanoyl = CCCCCCCCCC(=O)*; CH2Cl = ClC*
Key:
PC12-ES cells = experiment: Evoked neurotransmitter secretion by undifferentiated PC12-ES cells, furin inhibitor and arginine rich peptides; assay type: cell-based, rat; conditions: for inhibition of evoked neurotransmitter secretion by PC12-ES cells: potassium 80 mM, 15 minutes
Recombinant furin [1] = target: T1, Recombinant furin (Homo sapiens, UniProt P09958); conditions: CALBIOCHEM; cited from earlier work
PC12 cells [2] = assay type: cell-based, rat
Description: […]. Very little toxicity was present at 24 hours, and cytotoxicity at 48 hours was only slightly greater than at 24 hours. Cytotoxicity generally dipped to approximately 90% live cells when peptides were administered at 500 μM.

Recombinant furin [3] = target: T1, Recombinant furin; experiment: biochemical; assay type: biochemical
Description: To determine if the peptides described herein have an effect on the activity of PC enzymes which are involved in a condition or disorder such as fibrosis, the effect of the peptides on furin activity in vitro was measured as percent inhibition of cleavage of the furin substrate fluorogenic t-butyloxycarbonyl (Boc)-RVRR-7-amino-4-methylcoumarin (MCA).
All in vitro enzyme studies were performed at room temperature in a final volume of 50-100 μl in 96-well flat-bottom black plates. The buffer consisted of 100 mM HEPES, 1 mM CaCl2, 0.5% TritonX-100, and 1 mM 2-β-mercaptoethanol pH 7.5. Assays were performed using Boc-RVRR-MCA as fluorogenic substrate at 100 μM. Recombinant furin (0.8 U of activity) was incubated with Boc-RVRR-MCA in the presence or absence of varying concentrations of synthetic peptides D-9Rac/am (SEQ ID NO. 15), L-Bel1 (SEQ ID NO. 3), or L-9K (SEQ ID NO. 6). One unit of activity is defined as the amount of furin that can release 1 μmol of MCA from the fluorogenic Boc-RVRR-MCA per min at 30° C. The release of highly fluorescent 7-amino 4-methyl coumarin (MCA) from the Boc-RVRR-MCA was monitored by a spectrofluorometer instrument at excitation and emission wavelengths of 370 nm/460 nm. […]

furin = target: T2, furin (Rattus norvegicus, UniProt P23377); assay type: biochemical; conditions: EDTA 50 mM, EGTA 50 mM, Dec-RVKR-CMK 50 μM
T2 construct: Furin activity was constitutively detected in PC12-ES cells; endogenous in cells; host or cells: PC12-ES cells (lysate)
Description: To monitor the intracellular furin activity, 80% confluent PC12-ES cells were washed twice with ice-cold phosphate-buffered saline (PBS1×) by centrifugation at 800×g for 5 minutes at 4° C., resuspended in 100 mM HEPES, 1 mM CaCl2, 0.5% TritonX-100, and 1 mM 2-β-mercaptoethanol, pH 7.5, sonicated 6 times at 4° C. for 10 seconds, and then centrifuged at 8000×g for 20 minutes at 4° C. The protein concentration in the samples was determined using a bicinchonic acid protein assay kit (Pierce Chemical Co.).
Intracellular furin activity was measured with a furin-specific fluorogenic substrate, t-butyloxycarbonyl (Boc)-[…]-7-amino-4-methylcoumarin (MCA). Briefly, the cell lysate (20 μg-60 μg of protein) prepared as described above was incubated with 100 μM Boc-RVRR-MCA in a 96-well flat-bottom black plate for at least 6 hours at room temperature and fluorescence measured by excitation at 365 nm and emission at 450 nm.

[4] = 10% concentration in oil/water emulsion, 30-day treatment; cited from earlier work
PC12 cells [5] = experiment: Inhibition of [3H]norepinephrine neurosecretion by PC12 cells; assay type: cell-based, rat
Description: Using the neurosecretion assay described above, peptides fused to the TAT-PTD (L-TAT) were tested for inhibition of neurotransmitters and compared to use of L-TAT alone (SEQ ID NO: 3). In vitro screening for synthetic peptides capable of efficiently and selectively blocking neurotransmitter release in the PC12 cell line grown under defined conditions was performed.
PC12 cells were washed with DMEM-WM (Dulbecco's Modified Eagle Medium (GIBCO cat. no. 31968) completed with 25 units of penicillin and streptomycin each) and loaded for 1-2 h with [^3H] norepinephrine (NE; 0.5 μCi/ml) in DMEM-CM (DMEM-WM complemented with 6% horse serum and 6% fetal calf serum). Cells were washed for 1 h with DMEM-WM, and then washed 2 times at 5-minute intervals. Basal release was determined by a 15-minutes incubation with CaSB-glucose 5 mM K^+ (CaSB-glucose: 140 mM NaCl, 5 mM KCl, 2 mM CaCl2, 11 mM glucose, [pH 7.4]). The peptides were added to the cells at defined concentrations after loading with NE but before induction of secretion. Cells were depolarized with 85 mM K^+ (CaSB-glucose with Na^+ reduced accordingly) for 15 minutes to determine stimulated release. Superfusate (1 ml) was removed to tubes. Adherent cells were solubilized in CaSB-glucose-0.1% Triton (1 ml/well). The quantities of released and non-released radiolabeled neurotransmitter were determined by liquid scintillation counting of cleared superfusates and cell lysates, respectively. Total uptake was calculated by addition of released and retained radioactivity, and the percentage release was as calculated (released counts/total uptake counts)×100. Results were also expressed as percent inhibition of neurosecretion.

PC-12 cells = experiment: Actin cytoskeleton organization, phalloidin-TRITC staining; assay type: cell-based, rat; conditions: 2 to 10 μM, 30 minutes, labeled or unlabeled
Description: Slides with PC-12 cells were prepared as stated previously for localization studies. Briefly, cells were exposed to FITC-labeled or unlabeled peptides, at various concentrations, for 30 minutes, fixed and then permeabilized. Subsequently, F-actin was fluorescently labeled with phalloidin-Tetramethyl Rhodamine Iso-Thiocyanate (TRITC) (Sigma Aldrich) conjugate, diluted on saponin buffer (0.25 μg/ml), and nuclear staining with DAPI dihydrochloride (Sigma Aldrich) (0.02 μg/ml), at room temperature for maximum 30 minutes. Finally, slides were mounted and sealed, and stored at 4° C. protected from light. The effect of the peptides to actin polymerization was analyzed by confocal microscopy, as described before.

rat lung fibroblast (LF) = experiment: Cell contraction/relaxation on wrinkling silicone substrate, live videomicroscopy; assay type: cell-based; conditions: 10 μM and 50 μM
Description: To study the effect(s) of the peptides on muscle cells, which associate with neurosecretory cells at neuromuscular junctions, peptides were cultured with rat lung fibroblast (LF) grown over wrinkling substrate (silicon) which can mimic the effects of contraction. These cells have a myofibroblastic phenotype, e.g., production of TGF-β, which make them suitable for cellular contraction/relaxation studies.
Wrinkling silicone substrates were prepared as essentially described previously (Harris, et al., Science. 208:177-179, 1980; Hinz, et al., Mol Biol Cell. 12:2730-41, 2001). Briefly, 50 μl of silicone (poly dimethyl siloxane; 30.000 centistokes, Dow Corning, Midland, Mich.) were deposited onto a 35 mm round glass coverslip at the bottom of a self-made observation chamber, which was centrifuged at 1.000 rpm for 2 minutes to spread the viscous fluid. The silicone surface was then crosslinked by passing it through a Bunsen flame; a flaming time of 1 second produced a surface stiffness that restricted wrinkle formation to fibroblasts with high contractile force (Hinz et al., supra). The polymerized silicone surface was finally coated with 10 μg/ml collagen type I (Sigma) for 2 hours at 37° C. Lung fibroblast cells were seeded at a density of 3.5×10^3 cells/cm^2 and cultured for 1-2 days before the experiment. […]

T1 sequence (P09958 108-794): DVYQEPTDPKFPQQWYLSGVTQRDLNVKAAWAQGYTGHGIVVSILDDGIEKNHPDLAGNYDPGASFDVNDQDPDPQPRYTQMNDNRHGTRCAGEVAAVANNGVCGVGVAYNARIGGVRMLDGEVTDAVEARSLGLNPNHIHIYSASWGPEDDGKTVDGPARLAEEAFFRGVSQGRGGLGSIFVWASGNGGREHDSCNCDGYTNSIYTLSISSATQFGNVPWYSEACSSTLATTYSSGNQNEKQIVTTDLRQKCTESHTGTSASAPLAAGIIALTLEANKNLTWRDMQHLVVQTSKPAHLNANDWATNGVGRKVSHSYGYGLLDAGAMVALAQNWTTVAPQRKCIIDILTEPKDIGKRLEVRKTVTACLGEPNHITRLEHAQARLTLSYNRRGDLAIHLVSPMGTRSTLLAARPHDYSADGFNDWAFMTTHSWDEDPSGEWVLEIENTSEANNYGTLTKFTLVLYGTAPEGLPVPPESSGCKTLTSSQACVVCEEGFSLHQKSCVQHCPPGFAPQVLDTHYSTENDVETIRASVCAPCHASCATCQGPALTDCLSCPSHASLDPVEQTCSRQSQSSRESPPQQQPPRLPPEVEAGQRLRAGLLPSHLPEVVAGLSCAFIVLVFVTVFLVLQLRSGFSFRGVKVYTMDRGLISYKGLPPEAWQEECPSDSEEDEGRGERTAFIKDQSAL
T2 sequence (P23377 108-793): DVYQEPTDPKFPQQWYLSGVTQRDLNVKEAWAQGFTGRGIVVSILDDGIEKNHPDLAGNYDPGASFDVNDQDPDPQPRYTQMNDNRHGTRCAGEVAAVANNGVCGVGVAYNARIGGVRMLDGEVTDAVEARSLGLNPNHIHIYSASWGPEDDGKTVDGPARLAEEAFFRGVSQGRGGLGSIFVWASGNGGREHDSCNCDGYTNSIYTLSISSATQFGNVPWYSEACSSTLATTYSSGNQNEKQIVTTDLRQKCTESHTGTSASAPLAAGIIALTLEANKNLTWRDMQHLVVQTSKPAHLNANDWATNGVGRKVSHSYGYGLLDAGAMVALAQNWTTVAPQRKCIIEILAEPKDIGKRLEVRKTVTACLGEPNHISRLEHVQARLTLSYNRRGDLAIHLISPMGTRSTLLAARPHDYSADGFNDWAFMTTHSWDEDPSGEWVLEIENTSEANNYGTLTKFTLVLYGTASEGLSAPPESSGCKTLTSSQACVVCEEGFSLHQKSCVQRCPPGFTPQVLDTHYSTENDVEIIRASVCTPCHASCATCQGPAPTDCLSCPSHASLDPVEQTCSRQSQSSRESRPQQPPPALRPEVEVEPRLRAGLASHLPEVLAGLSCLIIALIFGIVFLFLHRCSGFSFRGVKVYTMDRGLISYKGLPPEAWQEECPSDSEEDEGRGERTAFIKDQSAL

Decanoyl-Arg-Val-Lys-Arg-CMK (Decanoyl-RVKR-CH2Cl) [FI-I, reference compound]
dose dependence of inhibition of evoked secretion (PC12-ES cells): dose dependent
inhibition of evoked neurotransmitter secretion by PC12-ES cells (PC12-ES cells; 10 μM): 12.6%
inhibition of evoked neurotransmitter secretion by PC12-ES cells (PC12-ES cells; 100 μM): 50%
Ki (Recombinant furin [1]): 1 nM
cytotoxicity (MTT) (PC12 cells [2]): no marked cytotoxicity
inhibition of in vitro furin activity (in words) (Recombinant furin [3]; Boc-RVRR-MCA 100 μM as substrate): inhibited
inhibition of intracellular furin activity (in words) (furin): inhibited

Ac-Glu-Glu-Met-Gln-Arg-Arg-NH2 (Ac-EEMQRR-NH2) [L-Argireline]
reduced wrinkle depth [4]: up to 30%
inhibition of secretion (PC12 cells [5]; 50 μM (mixture: 50 μM each)): no inhibition

9K-L: SEQ ID NO: 6 (GYGKKKKKKKKKG; Synthetic peptide 9K-L)
effect on actin content and organization (PC-12 cells): No effect
relaxing effect on lung myofibroblasts on silicon substrate (rat lung fibroblast (LF)): not observed
inhibition of neurotransmitter-evoked secretion (PC12 cells [5]; concentration not given, peptide alone): approximately 20%
concentration for complete blockade of cleavage of Boc-RVRR-MCA by furin (Recombinant furin [3]): > 3.5 µM
